Experimental data published in ChEMBL document CHEMBL1221220, “Transport and signaling via the amino acid binding site of the yeast Gap1 amino acid transceptor” (Nat Chem Biol, 2009).
Substitutions are numbered along the chain they refer to. Activity calls are given as the source filed them.

What was measured:
[1] = test system: T1, General amino-acid permease GAP1 (Saccharomyces cerevisiae), P19145 [A393C]; experiment: Induction of yeast Gap1 A393C mutant-mediated amino acid uptake at 2 mM in presence of 10 mM MTSEA treated before compound addition
T1 sequence (whole entry): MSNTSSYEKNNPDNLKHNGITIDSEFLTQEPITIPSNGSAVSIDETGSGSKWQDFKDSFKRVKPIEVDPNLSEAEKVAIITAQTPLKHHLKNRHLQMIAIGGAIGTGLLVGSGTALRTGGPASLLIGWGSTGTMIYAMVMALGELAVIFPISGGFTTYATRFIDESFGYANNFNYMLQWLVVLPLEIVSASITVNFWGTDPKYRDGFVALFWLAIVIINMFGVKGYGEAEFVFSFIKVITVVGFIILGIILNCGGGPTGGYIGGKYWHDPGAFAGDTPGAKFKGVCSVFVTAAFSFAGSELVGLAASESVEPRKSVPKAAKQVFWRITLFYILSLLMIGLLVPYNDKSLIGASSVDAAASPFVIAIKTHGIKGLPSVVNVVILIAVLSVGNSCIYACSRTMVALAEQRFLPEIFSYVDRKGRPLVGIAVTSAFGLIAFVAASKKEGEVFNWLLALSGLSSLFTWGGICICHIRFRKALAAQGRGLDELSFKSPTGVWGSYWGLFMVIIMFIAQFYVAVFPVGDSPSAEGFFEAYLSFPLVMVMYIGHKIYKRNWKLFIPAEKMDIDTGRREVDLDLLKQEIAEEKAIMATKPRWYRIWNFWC

[2] = test system: T2, General amino-acid permease GAP1 (Saccharomyces cerevisiae), P19145 [R399C]; experiment: Induction of yeast Gap1 R399C mutant-mediated amino acid uptake at 2 mM in presence of 10 mM MTSEA treated before compound addition
T2 sequence (whole entry): T1 sequence (whole entry) with C393A, R399C

[3] = test system: T3, General amino-acid permease GAP1 (Saccharomyces cerevisiae), P19145 [L383C]; experiment: Induction of yeast Gap1 L383C mutant-mediated trehalose activation at 2 mM in presence of 10 mM MTSEA treated before compound addition
T3 sequence (whole entry): T1 sequence (whole entry) with L383C, C393A

[4] = test system: T4, General amino-acid permease GAP1 (Saccharomyces cerevisiae), P19145 [A385C]; experiment: Induction of yeast Gap1 A385C mutant-mediated amino acid uptake at 2 mM in presence of 10 mM MTSEA treated before compound addition
T4 sequence (whole entry): T1 sequence (whole entry) with A385C, C393A

[5] = test system: T4, General amino-acid permease GAP1 (Saccharomyces cerevisiae), P19145 [A385C]; experiment: Induction of yeast Gap1 A385C mutant-mediated […] activation at 2 mM in presence of 10 mM MTSEA treated before compound addition
[6] = test system: Saccharomyces cerevisiae; experiment: Induction of yeast Gap1 L404 mutant-mediated amino acid uptake at 2 mM in presence of 10 mM MTSEA treated before compound addition

NC(=O)NCCC[C@H](N)C(=O)O
active: Activity [1] | Activity [2] | inhibition [3] | Activity [4] | inhibition [5] | Activity [6]
